Measurements: US8778871B2 (Takeda Pharmaceutical Company Limited, priority 2004, dated 2014)
Starred links: 1 amine or outer side, 2 acyl side, 3 side chain; linkers in the order of their positions; H or OH if unused. Non-standard residues stand in square brackets, D forms with d. Residues, ends and D or L forms follow the SMILES beside them. No end group written: not given here. *: point of attachment. Tyr(Me) = COc1ccc(C[C@H](N[*:1])C(=O)[*:2])cc1; d1Nal = N[C@H](Cc1cccc2ccccc12)C(=O)O; d2Nal = N[C@H](Cc1ccc2ccccc2c1)C(=O)O; Arg(Me) = CNC(=N)NCCC[C@H](N)C(=O)O; hArg = N=C(N)NCCCC[C@H](N)C(=O)O; Bz = O=C(c1ccccc1)*; GABA = NCCCC(=O)O; azaGly = NNC(=O)O

Target: T1, hOT7T175 (Homo sapiens, UniProt Q969F8, L364H)
T1 construct: expressed in transfected cells
Assay type: cell-based
Conditions: hOT7T175/CHO, FLIPR, evaluation for 40 seconds after initiation of the reaction

T1 sequence (Q969F8 whole entry L364H): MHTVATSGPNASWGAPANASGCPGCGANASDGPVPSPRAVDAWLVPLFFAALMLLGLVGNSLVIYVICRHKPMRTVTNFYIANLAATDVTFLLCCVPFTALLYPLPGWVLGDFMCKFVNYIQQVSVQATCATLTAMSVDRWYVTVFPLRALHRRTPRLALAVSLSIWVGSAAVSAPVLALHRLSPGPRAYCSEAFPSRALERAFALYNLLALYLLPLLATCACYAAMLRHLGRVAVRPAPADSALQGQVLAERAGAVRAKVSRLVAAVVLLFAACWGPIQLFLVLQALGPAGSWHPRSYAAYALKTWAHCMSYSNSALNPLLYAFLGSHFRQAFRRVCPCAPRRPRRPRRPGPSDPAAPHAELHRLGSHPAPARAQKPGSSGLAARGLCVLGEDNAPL

| Molecule | Specific Act. (EC50/MS10 EC50) |
| --- | --- |
| Ac-[d1Nal][dW]NTF[azaGly]L[Arg(Me)]W-NH2 [Compound No. 619] | 1.5 |
| Ac-[dY][dW]NTK[azaGly]L[Arg(Me)]W-NH2 [Compound No. 633] | 3.4 |
| CC[C@H](C)[C@H](NC(=O)[C@H](N)Cc1ccc(O)cc1)C(=O)N[C@@H](CC(N)=O)C(=O)N[C@@H](CO)C(=O)N[C@@H](Cc1ccccc1)C(=O)NNC(=O)N[C@@H](CC(C)C)C(=O)N[C@@H](CCCNC(=N)NC)C(=O)N[C@@H](Cc1ccccc1)C(N)=O [Compound No. 240, D-Tyr-Ile-Asn-Ser-Phe-AzaGly-Leu-Arg(Me)-Phe-NH2] (H-[dY]INSF[azaGly]L[Arg(Me)]F-NH2) | 4.9 |
| D-Arg-D-Arg-Acp-D-Tyr-D-Trp-Asn-Thr-Phe-AzaGly-Leu-Arg(Me)-Trp-NH2 [Compound No. 542] | 1.4 |
| Ac-[dY][dW]NTF[azaGly]L[hArg]W-NH2 [Compound No. 645] | 1.1 |
| D-Tyr-D-Pya(4)-Asn-Hyp-Phe-AzaGly-Leu-Arg(Me)-Trp-NH2 [Compound No. 527] | 3.3 |
| D-Trp-D-Pya(4)-Asn-Ser-Phe-AzaGly-Leu-Arg(Me)-Trp-NH2 [Compound No. 572] | 0.7 |
| Arg-D-Tyr-D-Pya(4)-Asn-Ser-Phe-AzaGly-Leu-Arg(Me)-Trp-NH2 [Compound No. 536] | 1.8 |
| Ac-[d2Nal][dW]NTF[azaGly]L[Arg(Me)]W-NH2 [Compound No. 620] | 1.7 |
| Ac-[dY][dW]TSF[azaGly]L[Arg(Me)]W-NH2 [Compound No. 578] | 0.8 |
| [dY][dW]NVF[azaGly]L[Arg(Me)]W-NH2 [Compound No. 539] | 1.2 |
| Amidino-D-Trp-Asn-Thr-Phe-AzaGly-Leu-Arg(Me)-Trp-NH2 (Amidino-[dW]NTF[azaGly]L[Arg(Me)]W-NH2) [Compound No. 679] | 1.8 |
| D-Arg-Acp-D-Tyr-D-Trp-Abu-Ser-Phe-AzaGly-Leu-Arg(Me)-Trp-NH2 [Compound No. 561] | 1.6 |
| Ac-[dY][dW]NTF[azaGly]LR(Et)W-NH2 [Compound No. 609] | 0.9 |
| Ac-[dY][dT]NTF[azaGly]L[Arg(Me)]W-NH2 [Compound No. 628] | 4.4 |
| Phenylacetyl-Asn-Ser-Phe-AzaGly-Leu-Arg(Me)-Trp-NH2 [Compound No. 519] | 2.4 |
| D-Arg-Acp-D-Tyr-D-Trp-Asn-Thr-Phe-AzaGly-Leu-Arg(Me)-Trp-NH2 [Compound No. 541] | 2.0 |
| Ac-D-Tyr-D-Trp-Asn-Thr-Phe-AzaGly-Leu-Arg(Me2)asym-Trp-NH2 [Compound No. 607] | 2.2 |
| Ac-[dY][dW]NTF[azaGly]A[Arg(Me)]W-NH2 [Compound No. 641] | 3.5 |
| Ac-[dY]WNT[dF][azaGly]L[Arg(Me)]W-NH2 [Compound No. 586] | 0.3 |

| Molecule | Specific Act. (EC50/MS10 EC50) |
| --- | --- |
| Ac-D-Tyr-D-Trp-Gly-Ser-Phe-AzaGly-Leu-Arg(Me)-Trp-NH2 (Ac-[dY][dW]GSF[azaGly]L[Arg(Me)]W-NH2; SMILES CNC(=N)NCCC[C@H](NC(=O)[C@H](CC(C)C)NC(=O)NNC(=O)[C@H](Cc1ccccc1)NC(=O)[C@H](CO)NC(=O)CNC(=O)[C@@H](Cc1c[nH]c2ccccc12)NC(=O)[C@@H](Cc1ccc(O)cc1)NC(C)=O)C(=O)N[C@@H](Cc1c[nH]c2ccccc12)C(N)=O) [Compound No. 686] | 0.6 |
| 3-Phenylpropionyl-Asn-Ser-Cha-Gly-Leu-Arg(Me)-Trp-NH2 [Compound No. 518] | 10.5 |
| Ac-[dY][dW]NTA[azaGly]L[Arg(Me)]W-NH2 [Compound No. 631] | 2 |
| Ac-Tyr-D-Pya(4)-Asn-Thr-Phe-AzaGly-Leu-Arg(Me)-Trp-NH2 [Compound No. 611] | 1.7 |
| Ac-[dR][dY][dW]NTF[azaGly]L[Arg(Me)]W-NH2 [Compound No. 568] | 0.6 |
| Glycoloyl-D-Trp-Asn-Thr-Phe-AzaGly-Leu-Arg(Me)-Trp-NH2 (Glycoloyl-[dW]NTF[azaGly]L[Arg(Me)]W-NH2) [Compound No. 680] | 2.5 |
| Ac-D-Tyr-D-Trp-Asn-Thr-Phe-AzaGly-Gln-Arg(Me)-Trp-NH2 (Ac-[dY][dW]NTF[azaGly]Q[Arg(Me)]W-NH2; SMILES CNC(=N)NCCC[C@H](NC(=O)[C@H](CCC(N)=O)NC(=O)NNC(=O)[C@H](Cc1ccccc1)NC(=O)[C@@H](NC(=O)[C@H](CC(N)=O)NC(=O)[C@@H](Cc1c[nH]c2ccccc12)NC(=O)[C@@H](Cc1ccc(O)cc1)NC(C)=O)[C@@H](C)O)C(=O)N[C@@H](Cc1c[nH]c2ccccc12)C(N)=O) [Compound No. 682] | 7.3 |
| Ac-[dY][dW]N[dT]F[azaGly]L[Arg(Me)]W-NH2 [Compound No. 654] | 2.9 |
| CNC(=N)NCCC[C@H](NC(=O)[C@H](CC(C)C)NC(=O)CNC(=O)[C@H](Cc1ccccc1)NC(=O)[C@H](CO)NC(=O)[C@H](CC(N)=O)NC(=O)[C@H](Cc1c[nH]c2ccccc12)NC(=O)[C@H](CC(N)=O)NC(=O)[C@@H](N)Cc1ccc(O)cc1)C(=O)N[C@@H](Cc1ccccc1)C(N)=O [Compound No. 82] | 1.0 |
| Ac-[dY][dW]NTF[azaGly]F[Arg(Me)]W-NH2 [Compound No. 643] | 2.5 |
| Ac-D-Tyr-D-Trp-Asp(NMe2)-Thr-Phe-AzaGly-Leu-Arg(Me)-Trp-NH2 [Compound No. 703] | 3.7 |
| Ac-[dY][dW]NS(Me)F[azaGly]L[Arg(Me)]W-NH2 [Compound No. 580] | 0.6 |
| Bz-NTF[azaGly]L[Arg(Me)]W-NH2 [Compound No. 522] | 1.9 |
| Ac-D-Tyr-Pya(4)-Asn-Thr-Phe-AzaGly-Leu-Arg(Me)-Trp-NH2 [Compound No. 624] | 1.2 |
| Ac-[dY][dW]QSF[azaGly]L[Arg(Me)]W-NH2 [Compound No. 576] | 0.8 |
| Ac-[dY][dW]D(NHMe)TF[azaGly]L[Arg(Me)]W-NH2 [Compound No. 702] | 0.6 |
| Ac-D-Tyr-D-Trp-Alb-Ser-Phe-AzaGly-Leu-Arg(Me)-Trp-NH2 [Compound No. 579] | 0.6 |
| Ac-D-Tyr-D-Trp-Asn-Thr-Tyr(Me)-AzaGly-Leu-Arg(Me)-Trp-NH2 (Ac-[dY][dW]NT[Tyr(Me)][azaGly]L[Arg(Me)]W-NH2; SMILES CNC(=N)NCCC[C@H](NC(=O)[C@H](CC(C)C)NC(=O)NNC(=O)[C@H](Cc1ccc(OC)cc1)NC(=O)[C@@H](NC(=O)[C@H](CC(N)=O)NC(=O)[C@@H](Cc1c[nH]c2ccccc12)NC(=O)[C@@H](Cc1ccc(O)cc1)NC(C)=O)[C@@H](C)O)C(=O)N[C@@H](Cc1c[nH]c2ccccc12)C(N)=O) [Compound No. 693] | 1.5 |
| D-Tyr-D-Pya(4)-Asn-Tle-Phe-AzaGly-Leu-Arg(Me)-Trp-NH2 [Compound No. 529] | 1.8 |
| [dR][dR][GABA][dY][dW]NTF[azaGly]L[Arg(Me)]W-NH2 [Compound No. 556] | 2.8 |
